Measurements from PubChem BioAssay AID1918940 (Molecular Pharmacology Branch, DTP, NCI, 2023).

System: NCI-H211 complex spheroid viability
Assay: Anticancer human tumor NCI-H211 cell line growth inhibition [LSD1];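 note: luminescent viability read after seven days of drug exposure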;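 for viability, T/C: 100% = DMSO vehicle control viability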
Conditions: for IC50: curve of first compound; for viability, T/C: stronger effect = lower value
Method in brief: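 Complex spheroids of tumor cells with HUVEC and human MSCs, exposed to iadademstat combined with other agents. Each agent tested in half-log steps from near clinical Cmax (else 10 microM top), DMSO ≤0.25%.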

[1] = second compound 0.1 µM, first compound 0.00949 µM
[2] = second compound 0.1 µM, first compound 0.03 µM
[3] = second compound 0.1 µM, first compound 0.0949 µM
[4] = second compound 0.1 µM, first compound 0.3 µM
[5] = second compound 0.1 µM, first compound 0.949 µM
[6] = second compound 0.1 µM, first compound 3 µM
[7] = second compound 0.316 µM, first compound 0.00949 µM
[8] = second compound 0.316 µM, first compound 0.03 µM
[9] = second compound 0.316 µM, first compound 0.0949 µM
[10] = second compound 0.316 µM, first compound 0.3 µM
[11] = second compound 0.316 µM, first compound 0.949 µM
[12] = second compound 0.316 µM, first compound 3 µM
[13] = second compound 1 µM, first compound 0.00949 µM
[14] = second compound 1 µM, first compound 0.03 µM
[15] = second compound 1 µM, first compound 0.0949 µM
[16] = second compound 1 µM, first compound 0.3 µM
[17] = second compound 1 µM, first compound 0.949 µM
[18] = second compound 1 µM, first compound 3 µM
[19] = second compound 3.16 µM, first compound 0.00949 µM
[20] = second compound 3.16 µM, first compound 0.03 µM
[21] = second compound 3.16 µM, first compound 0.0949 µM
[22] = second compound 3.16 µM, first compound 0.3 µM
[23] = second compound 3.16 µM, first compound 0.949 µM
[24] = second compound 3.16 µM, first compound 3 µM
[25] = second compound 10 µM, first compound 0.00949 µM
[26] = second compound 10 µM, first compound 0.03 µM
[27] = second compound 10 µM, first compound 0.0949 µM
[28] = second compound 10 µM, first compound 0.3 µM
[29] = second compound 10 µM, first compound 0.949 µM
[30] = second compound 10 µM, first compound 3 µM

SMILES	IC50 (second compound 0.1 µM) [nM]	IC50 (second compound 0.316 µM) [nM]	IC50 (second compound 1 µM) [nM]	IC50 (second compound 3.16 µM) [nM]	IC50 (second compound 10 µM) [nM]	viability, T/C [1] [%]	viability, T/C [2] [%]	viability, T/C [3] [%]	viability, T/C [4] [%]	viability, T/C [5] [%]	viability, T/C [6] [%]	viability, T/C [7] [%]	viability, T/C [8] [%]	viability, T/C [9] [%]	viability, T/C [10] [%]	viability, T/C [11] [%]	viability, T/C [12] [%]	viability, T/C [13] [%]	viability, T/C [14] [%]	viability, T/C [15] [%]	also measured
NS(=O)(=O)OCC1CC(n2ccc3c(NC4CCc5ccccc54)ncnc32)CC1O (stereo not given) + NC1CC1c1ccc(-c2cccc(O)c2)cc1	< 9.49	< 9.49	< 9.49	< 9.49	< 9.49	21.2	9.36	4.3	1.71	1.1	0.94	20.3	13.6	2.93	1.2	1.09	0.81	20.4	10.4	3.57	viability, T/C [16]: 1.64%; viability, T/C [17]: 1.11%; viability, T/C [18]: 0.79%; viability, T/C [19]: 26.8%; viability, T/C [20]: 13.2%; viability, T/C [21]: 5.17%; viability, T/C [22]: 2.04%; viability, T/C [23]: 0.97%; viability, T/C [24]: 0.81%; viability, T/C [25]: 27.4%; viability, T/C [26]: 12%; viability, T/C [27]: 5.24%; viability, T/C [28]: 1.75%; viability, T/C [29]: 0.61%; viability, T/C [30]: 0.57%
Nc1ccccc1NC(=O)c1ccc(CNC(=O)OCc2cccnc2)cc1 + NC1CC1c1ccc(-c2cccc(O)c2)cc1	12.2	< 9.49	< 9.49	< 9.49	12	56.5	26.4	4.02	1.9	1.18	0.14	46.8	18.2	4.2	2.36	1.27	0.1	45.8	25.1	3.68	viability, T/C [16]: 2.02%; viability, T/C [17]: 1.28%; viability, T/C [18]: 0.1%; viability, T/C [19]: 43.4%; viability, T/C [20]: 24.5%; viability, T/C [21]: 4.34%; viability, T/C [22]: 3.1%; viability, T/C [23]: 1.14%; viability, T/C [24]: 0.14%; viability, T/C [25]: 53.6%; viability, T/C [26]: 36.1%; viability, T/C [27]: 5.02%; viability, T/C [28]: 2.76%; viability, T/C [29]: 0.95%; viability, T/C [30]: 0.16%
O=C(C=Cc1cccc(S(=O)(=O)Nc2ccccc2)c1)NO + NC1CC1c1ccc(-c2cccc(O)c2)cc1	< 9.49	< 9.49	< 9.49	< 9.49	< 9.49	14.7	8.14	7.87	3.8	0.63	0.14	13.9	7.23	7.38	4.67	0.66	0.16	13.9	8.11	9.23	viability, T/C [16]: 4.38%; viability, T/C [17]: 0.39%; viability, T/C [18]: 0.17%; viability, T/C [19]: 15.4%; viability, T/C [20]: 7.28%; viability, T/C [21]: 7.21%; viability, T/C [22]: 4.21%; viability, T/C [23]: 0.29%; viability, T/C [24]: 0.16%; viability, T/C [25]: 13.5%; viability, T/C [26]: 6.43%; viability, T/C [27]: 7.11%; viability, T/C [28]: 3.82%; viability, T/C [29]: 0.24%; viability, T/C [30]: 0.27%
